In US7928099B2, “Pyrimido [4,5-D] azepine derivatives as 5-HT2c agonists” (Pfizer Inc, priority 2007, dated 2011):

Biological target: T1, human recombinant 5-HT2c receptor (Homo sapiens, UniProt P28335)
T1 construct: expressed in transfected cells; host or cells: CHO K1 (Chinese hamster ovary), stably transfected
T1 sequence (P28335 33-458): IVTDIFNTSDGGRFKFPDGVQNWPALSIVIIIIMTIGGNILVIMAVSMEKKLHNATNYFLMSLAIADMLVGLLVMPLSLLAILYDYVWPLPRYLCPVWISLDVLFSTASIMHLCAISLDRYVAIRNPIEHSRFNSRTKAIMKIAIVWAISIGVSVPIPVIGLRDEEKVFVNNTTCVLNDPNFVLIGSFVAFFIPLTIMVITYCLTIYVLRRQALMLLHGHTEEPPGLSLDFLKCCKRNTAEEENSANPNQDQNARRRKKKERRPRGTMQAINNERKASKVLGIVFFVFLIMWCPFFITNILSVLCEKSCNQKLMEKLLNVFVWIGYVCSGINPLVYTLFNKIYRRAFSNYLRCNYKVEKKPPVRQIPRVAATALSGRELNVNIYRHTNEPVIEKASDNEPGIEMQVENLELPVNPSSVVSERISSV
Assay: FLIPR fluorescent Ca2+ mobilisation agonist assay in CHO K1 cells (Method 1)
Assay type: cell-based
Conditions: for Emax: percentage of mean maximal response to 10 μM 5-HT; for EC50: agonist affinity, FLIPR
Protocol: The compounds of the invention were evaluated for biological activity by measuring the agonist affinity (EC50) and efficacy (Emax) at the human recombinant 5-HT2c receptor expressed in CHO K1 cells, using a fluorescent based Ca^2+ mobilisation assay format compatible with FLIPR technology (Method 1). Additionally, the binding activity of a compound was determined by measuring its affinity for the human recombinant 5-HT2c receptor membranes from Swiss 3T3 cells (Method 2).
The agonist affinity of the compounds were tested by measuring their ability to induce a fluorescent based Ca^2+ mobilization signal in a FLIPR assay using CHO K1 cells expressing recombinant human 5-HT2C receptor. Both agonist affinity (EC50) and efficacy (Emax) were determined.
Chinese hamster ovary cells (CHO K1) stably transfected with the 5-HT2c receptor were cultured under standard cell culture techniques. Specifically, cells were grown at 37° C. and 5% CO2 in Dulbecco's Modified Eagle's Medium (DMEM) culture media supplemented with 10% dialysed foetal calf serum (FCS), 1% non-essential amino acids, 1 mM sodium pyruvate, 800 μg/mL geneticin and 50 μg/ml zeocin. Cells were harvested for passaging and storage using trypsin-EDTA, centrifugation and resuspension in culture medium. Cells were grown to 60-80% confluency, harvested and adjusted to 15-20×10^6 cells/ml/vial in medium/10% DMSO and stored long-term at −80° C.
Cells were seeded into black-walled clear-bottomed 384 well plates 24 h before use. Frozen cells were defrosted in a 37° C. water bath and immediately transferred into 1 mL/vial 37° C. culture medium, diluted to 10 ml and DMSO removed by centrifugation. The cells were resuspended in 15 ml/vial of cell culture medium, counted and adjusted to give 500,000 cells/mL (10,000 cells/well). […] of cell suspension was added to the 384 well plates which were then incubated overnight at 37° C.
The maximum agonist response was determined with 5-HT at a final assay concentration of 10 μM in the diluent above. The minimum response was determined with Dulbeccos PBS (+CaCl2, +MgCl2) with 0.9% DMSO and 0.05% pluronic F-127. Test compounds, maximum and minimum controls were added to a 384 well polypropylene plate.
The FLIPR calcium assay reagent was diluted with assay buffer (Hank's Balanced Salt Solution (HBSS))/20 mM HEPES and 2.5 mM probenecid (diluted with 1M Sodium hydroxide and DPBS (+CaCl2, +MgCl2)).
20 μl/well FLIPR calcium assay reagent was added to the cell plates, which were incubated for 1 h at 37° C. Cell plates and compound plates were then transferred onto the FLIPR. The assay was run using the appropriate FLIPR program, which initiates the reaction by transferring 15 μL compound into the corresponding, well of the cell plate.
The statistical parameter exported from each well was the max peak height of the response.

## CNc1nc(C(C)c2ccccc2)nc2c1CCNCC2 (centres unmarked) [Example 3, N-methyl-2-(1-phenylethyl)-6,7,8,9-tetrahydro-5H-pyrimido[4,5-d]azepin-4-amine]
efficacy
  Emax: 60.8%

## Clc1ccc(Cc2ncc3c(n2)CCNCC3)cc1 [Example 57, 2-(4-Chlorobenzyl)-6,7,8,9-tetrahydro-5H-pyrimido[4,5-d]azepine]
CHO-K1, efficacy
  Emax: 64.7%
  EC50: 192 nM

## Fc1ccccc1Cc1ncc2c(n1)CCNCC2 [Example 60, 2(2-Fluorobenzyl)-6,7,8,9-tetrahydro-5H-pyrimido[4,5-d]azepine]
CHO-K1, efficacy
  Emax: 65.1%
  EC50: 194 nM

## Fc1cccc(Cc2ncc3c(n2)CCNCC3)c1 [Example 61, 2-(3-Fluorobenzyl)-6,7,8,9-tetrahydro-5H-pyrimido[4,5-d]azepine]
CHO-K1, efficacy
  Emax: 67.1%
  EC50: 125 nM

## Cc1ccc(Cc2ncc3c(n2)CCNCC3)cc1 [Example 64, 2-(4-Methylbenzyl)-6,7,8,9-tetrahydro-5H-pyrimido[4,5-d]azepine]
CHO-K1, efficacy
  Emax: 63.1%
  EC50: 100 nM

## c1ccc(Cc2nc3c(c(OCCc4ccccn4)n2)CCNCC3)cc1 [Example 73, 2-benzyl-4-(2-pyridin-2-ylethoxy)-6,7,8,9-tetrahydro-5H-pyrimido[4,5-d]azepine]
CHO-K1, efficacy
  Emax: 83.3%
  EC50: 8.61 nM

## c1ccc(Cc2nc3c(c(OCC4CCCO4)n2)CCNCC3)cc1 (centres unmarked) [Example 74, 2-benzyl-4-(2-tetra-hydrofuran-2-ylmethoxy)-6,7,8,9-tetrahydro-5H-pyrimido[4,5-d]azepine]
CHO-K1, efficacy
  Emax: 86.7%
  EC50: 17.1 nM

## N#Cc1ccc(CCOc2nc(Cc3ccccc3)nc3c2CCNCC3)cc1 [Example 75, 4-{2-[(2-benzyl-6,7,8,9-tetrahydro-5H-pyrimido-[4,5-d]azepin-4-yl)oxy]ethyl}-benzonitrile]
CHO-K1, efficacy
  Emax: 90.1%
  EC50: 58.1 nM

## CC(C)COc1nc(Cc2ccccc2)nc2c1CCNCC2 [Example 76, 2-benzyl-4-isobutoxy-6,7,8,9-tetrahydro-5H-pyrimido[4,5-d]azepine]
CHO-K1, efficacy
  Emax: 34%
  EC50: 127 nM

## Cc1ncccc1COc1nc(Cc2ccccc2)nc2c1CCNCC2 [Example 77, 2-benzyl-4-[(2-methyl-pyridin-3-yl)methoxy]-6,7,8,9-tetrahydro-5H-pyrimido[4,5-d]azepine]
CHO-K1, efficacy
  Emax: 70.3%
  EC50: 130 nM

## CN1CCC[C@H]1COc1nc(Cc2ccccc2)nc2c1CCNCC2 [Example 78, 2-benzyl-4-{[(2S)-1-methylpyrrolidin-2-yl]methoxy}-6,7,8,9-tetrahydro-5H-pyrimido[4,5-d]azepine]
CHO-K1, efficacy
  Emax: 69.5%
  EC50: 138 nM

## c1ccc(Cc2nc3c(c(OCCc4ccncc4)n2)CCNCC3)cc1 [Example 79, 2-benzyl-4-(2-pyridin-4-ylethoxy)-6,7,8,9-tetrahydro-5H-pyrimido[4,5-d]azepine]
CHO-K1, efficacy
  Emax: 67.3%
  EC50: 154 nM

## c1ccc(Cc2nc3c(c(OCC4CCOCC4)n2)CCNCC3)cc1 [Example 80, 2-benzyl-4-(tetrahydro-2H-pyran-4-ylmethoxy)-6,7,8,9-tetrahydro-5H-pyrimido[4,5-d]azepine]
CHO-K1, efficacy
  Emax: 74.2%
  EC50: 184 nM

## CC(C)(C)OCCOc1nc(Cc2ccccc2)nc2c1CCNCC2 [Example 81, 2-benzyl-4-(2-tert-butoxyethoxy)-6,7,8,9-tetrahydro-5H-pyrimido[4,5-d]azepine]
CHO-K1, efficacy
  Emax: 60.3%
  EC50: 195 nM

## CC(CN1CCOCC1)Oc1nc(Cc2ccccc2)nc2c1CCNCC2 (centres unmarked) [Example 82, 2-benzyl-4-(1-methyl-2-morpholin-4-ylethoxy)-6,7,8,9-tetrahydro-5H-pyrimido[4,5-d]azepine]
CHO-K1, efficacy
  Emax: 71.9%
  EC50: 304 nM

## CC(COc1nc(Cc2ccccc2)nc2c1CCNCC2)N(C)C (centres unmarked) [Example 83, 1-[(2-benzyl-6,7,8,9-tetrahydro-5H-pyrimido-[4,5-d]azepin-4-yl)oxy]-N,N-dimethylpropan-2-amine]
CHO-K1, efficacy
  Emax: 45.7%
  EC50: 338 nM

## FC(F)(F)CCCOc1nc(Cc2ccccc2)nc2c1CCNCC2 [Example 84, 2-benzyl-4-(4,4,4-trifluorobutoxy)-6,7,8,9-tetrahydro-5H-pyrimido[4,5-d]azepine]
CHO-K1, efficacy
  Emax: 36.4%
  EC50: 395 nM

## CN1CCC(COc2nc(Cc3ccccc3)nc3c2CCNCC3)CC1 [Example 85, 2-benzyl-4-[(1-methyl-piperidin-4-yl)methoxy]-6,7,8,9-tetrahydro-5H-pyrimido[4,5-d]azepine]
CHO-K1, efficacy
  Emax: 86.3%
  EC50: 421 nM

## CCNc1nc(N2CCc3ccccc3C2)nc2c1CCNCC2 [Example 87, 2-(3,4-dihydroisoquinolin-2(1H)-yl)-N-ethyl-6,7,8,9-tetrahydro-5H-pyrimido-[4,5-d]azepin-4-amine]
CHO-K1, efficacy
  Emax: 57.1%
  EC50: 48.3 nM

## c1ccc2c(c1)CCN(c1nc3c(c(N4CCSCC4)n1)CCNCC3)C2 [Example 88, 2-(3,4-dihydroisoquinolin-2(1H)-yl)-4-thiomorpholin-4-yl-6,7,8,9-tetrahydro-5H-pyrimido[4,5-d]-azepin-4-amine]
CHO-K1, efficacy
  Emax: 67.6%
  EC50: 838 nM

## CCCCNc1nc(N2CCSCC2)nc2c1CCNCC2 [Example 89, N-butyl-2-thiomorpholin-4-yl-6,7,8,9-tetrahydro-5H-pyrimido[4,5-d]-azepin-4-amine]
CHO-K1, efficacy
  Emax: 48.2%
  EC50: 33.6 nM

## c1ccc(CCNc2nc(N3CCSCC3)nc3c2CCNCC3)cc1 [Example 91, N-(2-phenylethyl)-2-thiomorpholin-4-yl-6,7,8,9-tetrahydro-5H-pyrimido-[4,5-d]azepin-4-amine]
CHO-K1, efficacy
  Emax: 69.6%
  EC50: 186 nM

## CCN(C)c1nc(N2CCSCC2)nc2c1CCNCC2 [Example 92, N-ethyl-N-methyl-2-thiomorpholin-4-yl-6,7,8,9-tetrahydro-5H-pyrimido-[4,5-d]azepin-4-amine]
CHO-K1, efficacy
  Emax: 77.3%
  EC50: 90 nM

## CNc1nc(N2CCSCC2)nc2c1CCNCC2 [Example 93, N-methyl-2-thio-morpholin-4-yl-6,7,8,9-tetrahydro-5H-pyrimido-[4,5-d]azepin-4-amine]
CHO-K1, efficacy
  Emax: 77%
  EC50: 11.5 nM

## C1Cc2nc(N3CCSCC3)nc(N3CCSCC3)c2CCN1 [Example 94, 2,4-dithiomorpholin-4-yl-6,7,8,9-tetrahydro-5H-pyrimido[4,5-d]azepine]
CHO-K1, efficacy
  Emax: 80.8%
  EC50: 261 nM

## CCN(C)c1nc(N2CCOCC2)nc2c1CCNCC2 [Example 95, N-ethyl-N-methyl-2-morpholin-4-yl-6,7,8,9-tetrahydro-5H-pyrimido-[4,5-d]azepin-4-amine]
CHO-K1, efficacy
  Emax: 88.4%
  EC50: 229 nM

## C1Cc2nc(N3CCOCC3)nc(N3CCSCC3)c2CCN1 [Example 96, 2-morpholin-4-yl-4-thio-morpholin-4-yl-6,7,8,9-tetrahydro-5H-pyrimido-[4,5-d]azepin-4-amine]
CHO-K1, efficacy
  Emax: 66.9%
  EC50: 311 nM

## CN(C)c1nc(N2CCOCC2)nc2c1CCNCC2 [Example 97, N,N-dimethyl-2-morpholin-4-yl-6,7,8,9-tetrahydro-5H-pyrimido-[4,5-d]azepin-4-amine]
CHO-K1, efficacy
  Emax: 84.6%
  EC50: 67.6 nM

## CCN(C)c1nc2c(c(NCC3CC3)n1)CCNCC2 [Example 99, N-4-(cyclopropylmethyl)-N-2-ethyl-N-2-methyl-6,7,8,9-tetrahydro-5H-pyrimido[4,5-d]azepin-4-amine]
CHO-K1, efficacy
  Emax: 69.5%
  EC50: 103 nM

## CCN(C)c1nc2c(c(N(C)C)n1)CCNCC2 [Example 100, N-2-ethyl-N-2,N-4,N-4-trimethyl-6,7,8,9-tetra-hydro-5H-pyrimido-[4,5-d]azepine-2,4-diamine]
CHO-K1, efficacy
  Emax: 51.2%
  EC50: 122 nM
